Results reported in patent publication US4857524A, “Thiazolidine compounds and therapeutic method” (Kissei Pharmaceutical Co., Ltd., priority 1987, dated 1989).
pIC50: −log10 of the molar value. Square brackets hold non-standard residues; d marks the D form. Peptide text beside a SMILES is read from it. * marks the point of attachment. Thz = O=C(O)[C@@H]1CSCN1; Cbz = O=C(OCc1ccccc1)*

Each compound was assayed against T1, prolyl endopeptidase (Bos taurus, UniProt Q9XTA2) (assay: Inhibitory Effect for Prolyl Endopeptidase (enzyme purified from bovine brain)).
T1 construct: the enzyme purified from bovine brain; from tissue; host or cells: bovine brain
T1 sequence (Q9XTA2 1-710): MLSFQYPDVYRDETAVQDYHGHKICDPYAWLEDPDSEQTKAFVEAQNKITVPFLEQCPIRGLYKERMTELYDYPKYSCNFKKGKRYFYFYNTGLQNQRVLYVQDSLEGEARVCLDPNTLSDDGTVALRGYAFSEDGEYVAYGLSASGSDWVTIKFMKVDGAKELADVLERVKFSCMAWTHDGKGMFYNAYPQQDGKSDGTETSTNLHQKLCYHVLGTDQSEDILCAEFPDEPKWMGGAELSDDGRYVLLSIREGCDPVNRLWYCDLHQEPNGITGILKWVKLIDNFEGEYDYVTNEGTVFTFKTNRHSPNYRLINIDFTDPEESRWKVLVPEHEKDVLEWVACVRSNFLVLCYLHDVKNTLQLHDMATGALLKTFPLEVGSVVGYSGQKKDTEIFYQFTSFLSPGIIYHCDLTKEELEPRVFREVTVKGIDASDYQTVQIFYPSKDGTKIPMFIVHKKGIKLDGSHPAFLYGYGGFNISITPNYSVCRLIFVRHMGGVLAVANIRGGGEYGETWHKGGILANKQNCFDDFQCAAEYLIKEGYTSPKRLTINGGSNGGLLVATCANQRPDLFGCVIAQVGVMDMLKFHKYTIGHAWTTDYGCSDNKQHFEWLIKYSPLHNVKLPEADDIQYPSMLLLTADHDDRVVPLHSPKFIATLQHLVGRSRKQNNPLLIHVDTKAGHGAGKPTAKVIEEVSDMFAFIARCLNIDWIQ
Format: biochemical
Experimental: To 0.5 ml of the supernatant was added 0.5 ml of 0.1% sodium nitrite aqueous solution, and after 3 minutes, 0.5 ml of 0.5% ammonium sulfamate and 1 ml of 0.05% N-(1-naphthyl)ethylenediamine dihydrochloride in ethanol were further added . The mixture was left for 25 minutes at 37° C., and the absorbance was measured at 570 nm.
The unit of the enzyme activity (μmol/min/ml)=ΔOD×0.42×a dilution factor
`O=C([C@@H]1CSCN1C(=O)Cc1ccccc1)N1CCCC1` [Compound O, 1-[(R)-(-)-3-Phenylacetylthiazolidine-4-carbonyl]pyrrolidine] showed a pIC50 of 6.18. With `COC(=O)[C@@H]1CCCN1C(=O)[C@@H]1CSCN1C(=O)OCc1ccccc1` [Compound B, (S)-(-)-N-[(R)-(-)-3-Benzyloxycarbonylthiazolidine-4-carbonyl]pyrrolidine-2-carboxylic acid methyl ester] (Cbz-[Thz]-Pro-OMe) the pIC50 was 4.14. With `O=C([C@@H]1CSCN1C(=O)OCc1ccccc1)N1CCSC1` [Compound A, 3-[(R)-(-)-3-Benzyloxycarbonylthiazolidine-4-carbonyl]thiazolidine] the pIC50 was 9.59. Compound `O=C([C@@H]1CSCN1C(=O)c1ccncc1)N1CCSC1` [Compound U, 3-[(R)-(-)-3-Isonicotinoylthiazoidine-4-carbonyl]thiazolidine] has a pIC50 of 5.89. Work on `O=C([C@@H]1CSCN1C(=O)CCc1ccccc1)N1CCSC1` [Compound H, 33-[(R)-(-)-3-(3-Phenylpropionyl)thiazolidine-4-carbonyl]thiazolidine] yielded a pIC50 of 6.40. For `O=C([C@@H]1CSCN1C(=O)Cc1ccccc1)N1CCSC1` [Compound N, 3-[(R)-(-)-3-Phenylacetylthiazolidine-4-carbonyl]thiazolidine], the pIC50 was 7.20. Compound `O=C([C@@H]1CSCN1C(=O)C=Cc1ccccc1)N1CCCC1` [Compound Q, 1-[(R)-(-)-3-Cinnamoylthiazolidine-4-carbonyl]pyrrolidine] has a pIC50 of 5.34. `O=C([C@@H]1CSCN1C(=O)C=Cc1ccccc1)N1CCSC1` [Compound P, 3-[(R)-(-)-3-Cinnamoylthiazolidine-4-carbonyl]thiazolidine] was tested, and the pIC50 was 5.49. `COC(=O)[C@@H]1CSCN1C(=O)[C@@H]1CSCN1C(=O)OCc1ccccc1` [Compound G, (R)-(-)-3-[(R)-(-)-3-Benzyloxycarbonylthiazolidine-4-carbonyl]thiazolidine-4-carboxylic acid methyl ester] (Cbz-[Thz]-[Thz]-OMe) was tested, and the pIC50 was 6.68. `O=C([C@@H]1CSCN1C(=O)OCc1ccccc1)N1CCSCC1` [Compound F, N-[(R)-(-)-3-Benzyloxycarbonylthiazolidine-4-carbonyl]thiomorpholine] was tested, and the pIC50 was 3.64.
